Columns and labels:
Type in all cases: cell-based
[1] = tested on: CCD-19LU; assay: MTT cytotoxicity assay, non-cancerous lung fibroblast cells; conditions: 24 h treatment
Procedure: To show the highly cytotoxic properties of the present compound of Formula (IIa), H1650, HCC827 and H1975 NSCLC cells and non-cancerous lung fibroblast cells (CCD-19LU) were treated with the compound of Formula (IIa) and respective effects were observed. H1650 cells are adenocarcinoma cells harboring an E746-A750del deletion in exon 19 and other driver mutation genes which lead to a resistance against gefitinib. HCC827 cells are adenocarcinoma cells harboring high level EGFR amplification and an E746-A750del deletion in exon 19 without gefitinib-resistance. H1975 cells are adenocarcinoma cells harboring L858R substitution in exon 21 and a T790M substitution in exon 20 which is directly associated with resistance against gefitinib. The cells were obtained from the American Type Culture Collection (ATCC) and cultured in environment of 5% CO2 at 37° C. in RPMI-1640 medium supplemented with 10% fetal bovine serum (FBS), 100 units/mL penicillin, and 100 μg/mL streptomycin. The compound of Formula (IIa) was dissolved in DMSO. […] The absorbance was measured at 570 nm by a microplate reader (Tecan, Morrisville, N.C., USA).
The cell viability was calculated relative to untreated controls, with results based on at least three independent experiments.

[2] = tested on: cleaved Caspase-3 and cleaved PARP in H1650 cells; assay: Western blot of cleaved caspase-3 and cleaved PARP, H1650; conditions: 24 h
Procedure: (§1) The H1650 or H1975 cells were planted on 6-well plates, allowed to attach for 24 h, and treated with 4 μM of the compound of Formula (IIa) with or without NAC (10 mM) for 24 h. Cells were washed twice with cold PBS then lysed in RIPA lysis buffer containing protease and phosphatase inhibitors. Protein concentration of the cell lysates was measured using the Bio-Rad protein Assay kit (Bio-Rad, 7 Philadelphia, Pa., USA). After equalizing the protein concentrations of the samples, 5× laemmli buffer was added and the samples were boiled at 100° C. for 5 min. Equal amounts of protein samples (30 μg) were subjected to SDS-PAGE of a 10% gel. The separated proteins were transferred to a nitrocellulose (NC) membrane, which was then exposed to 5% non-fat dried milk in TBS containing 0.1% Tween (0.1% TBST) for 1 h at room temperature, followed by overnight incubation at 4° C. with primary antibodies. After washing three times by TBST (5 mins/time), the membranes were incubated for 1 h at room temperature with secondary fluorescent antibodies (1:10000 dilutions) to rabbit or mouse. The signal intensity of the membranes was detected by an LI-COR Odessy scanner (Belfast, Me., USA).

[3] = target: T1, EGFR (Homo sapiens, UniProt P00533, L858R/T790M); assay: Western blot of EGFR phosphorylation, H1975; conditions: H1975 cells, 1, 2, 3, 4 μM, 2 h
T1 construct: H1975 cells were planted on 6-well plate, allowed to attach for 24 h, and treated; host or cells: H1975 NSCLC adenocarcinoma cells
Procedure: H1975 cells were planted on 6-well plate, allowed to attach for 24 h, and treated with the various concentrations of the compound of Formula (Ic) for 2 h. Cells were washed twice with cold PBS then lysed in RIPA lysis buffer containing protease and phosphatase inhibitors. Protein concentration of the cell lysates was measured using the Bio-Rad protein Assay kit (Bio-Rad, 7 Philadelphia, Pa., USA). After equalizing the protein concentrations of the samples, 5× laemmli buffer was added and the samples were boiled at 100° C. for 5 min. Equal amounts of protein samples (30 μg) were subjected to SDS-PAGE of a 10% gel. The separated proteins were transferred to a nitrocellulose (NC) membrane, which was then exposed to 5% non-fat dried milk in TBS containing 0.1% Tween (0.1% TBST) for 1 h at room temperature, followed by overnight incubation at 4° C. with primary antibodies. After washing three times by TBST (5 mins/time), the membranes were incubated for 1 h at room temperature with the secondary fluorescent antibodies (1:10000 dilutions) to rabbit or mouse. The signal intensity of the membranes was detected by an LI-COR Odessy scanner (Belfast, Me., USA). Actin was used as the loading control for normalization.

[4] = tested on: H1975 cells; assay: ROS generation, H1975; conditions: 4 μM, 30 min treatment
Procedure: (§2) Apoptosis assay and analysis with flow cytometer was performed as described in Example 1B with H1650 and H1975 cells and treatment with 4 μM of the compound of Formula (IIa) for 30 min in the presence or absence of N-acetylcystein (NAC) or treatment with DMSO (control, negative control). FIG. 4A to 4D show fluorescence images of H1650 cells and FIG. 5A to 5D show fluorescence images of H1975 cells.
(§3) ROS generation was considered as the direct cause of apoptosis induced by the compound of Formula (IIa). After 30 min treatment of the H1650 and H1975 cells, the intensity of ROS increased more than 10-fold.

[5] = tested on: H1650 cells; assay: ROS generation, H1650; conditions: 4 μM, 30 min treatment
Procedure: as §2, §3

[6] = tested on: cleaved Caspase-3 and cleaved PARP in H1975 cells; assay: Western blot of cleaved caspase-3 and cleaved PARP, H1975; conditions: 24 h
Procedure: as §1

[7] = tested on: H1975 cells; assay: Annexin-V/PI apoptosis assay by flow cytometry, H1975
Procedure: (§4) Apoptosis assay was performed on gefitinib-resistant H1650 and H1975 cells. The cells (1.0×10^5 cells/well) were allowed to attach to a 6-well plate for 24 h, and the cells were treated with the various concentrations of the compound of Formula (IIa) for additional 24 h. At the end of incubation, the cells were harvested by trypsinization and washed twice with ice-cold PBS. After centrifugation and removal of the supernatants, cell pellets were resuspended in 100 μL 1×Annexin-binding buffer, 2 μL Annexin-V FITC and 2 μL PI (100 μg/ml) were added and incubated in the dark at room temperature for 15 min before further addition of 400 μL of 1×Annexin-binding buffer. The stained cells were analyzed quantitatively using a flow cytometer (BD Biosciences, San Jose, Calif., USA). Data were analyzed by Flow Jo software. FIG. 2A to 2E show fluorescence images of H1650 cells and FIG. 3A to 3E show fluorescence images of H1975 cells having been treated with the compound of Formula (IIa) at 1 μM, 2 μM, 3 μM and 4 μM; and DMSO (control, negative control).
(§5) Apoptosis assay and analysis with flow cytometer was performed as described in Example 1B with H1650 and H1975 cells and treatment with 4 μM of the compound of Formula (IIa) for 30 min in the presence or absence of N-acetylcystein (NAC) or treatment with DMSO (control, negative control). […]

[8] = tested on: H1650 cells; assay: Annexin-V/PI apoptosis assay by flow cytometry, H1650
Procedure: as §4, §5

[9] = 4 μM Formula (IIa) with 10 mM NAC

| SMILES | cytotoxicity on non-cancerous lung fibroblast cells compared with NSCLC cells [1] | cleaved Caspase-3 and cleaved PARP expression ([2]; 4 μM) | EGFR phosphorylation (tyrosine 1068, 1173, 1045) [3] | increase of intensity of ROS [4] | increase of intensity of ROS [5] | cleaved Caspase-3 and cleaved PARP expression ([6]; 4 μM) | induction of apoptosis ([7]; H1975 cells, 1, 2, 3, 4 μM, 24 h) | induction of apoptosis ([8]; H1650 cells, 1, 2, 3, 4 μM, 24 h) | effect of NAC on apoptosis (cleaved Caspase-3, cleaved PARP) induced by Formula (IIa) [2, 9] | effect of NAC on apoptosis (cleaved Caspase-3, cleaved PARP) induced by Formula (IIa) [6, 9] | effect of NAC on apoptosis induced by the compound of Formula (IIa) ([7]; H1975 cells, 4 μM Formula (IIa) in presence of NAC) | effect of NAC on apoptosis induced by the compound of Formula (IIa) ([8]; H1650 cells, 4 μM Formula (IIa) in presence of NAC) |
| --- | --- | --- | --- | --- | --- | --- | --- | --- | --- | --- | --- | --- |
| CC(C)=CC[C@@H](O)C1=CC(=O)c2c(O)ccc(O)c2C1=O [Formula (IIa), shikonin] | much lower cytotoxicity | increase in cleaved Caspase-3 and cleaved Poly(ADP-ribose) Polymerase (PARP) | suppress EGFR phosphorylation | more than 10 fold | more than 10 fold | increase in cleaved Caspase-3 and cleaved Poly(ADP-ribose) Polymerase (PARP) | significantly induced apoptosis | significantly induced apoptosis |  |  |  |  |
| CC(=O)N[C@@H](CS)C(=O)O [NAC, N-acetylcystein, reference compound] |  |  |  |  |  |  |  |  | blocked | blocked | completely blocked the apoptosis | completely blocked the apoptosis |
